Data reported in PMC11003925, “Antimicrobial activity and properties of de novo design of short synthetic lipopeptides” (Folia Microbiologica, 2024).
In brackets after ≈: the same amount, converted by molar mass. Read-outs that look alike come from different tables or passages of the source. Residues, ends and D or L forms follow the SMILES beside them. *: point of attachment. Lithocholoyl = C[C@H](CCC(=O)*)[C@H]1CC[C@H]2[C@@H]3CC[C@@H]4C[C@H](O)CC[C@]4(C)[C@H]3CC[C@]12C

Tests used:
C. tropicalis DBM 2166 = assay type: cell-based, Candida tropicalis; conditions: for IC50: DBM 2166, 25 h
Experimental: (§1) A Bioscreen C automated microbiology growth curve analysis system (Growth Curves, Piscataway, NJ, USA) was used for the quantitative determination of antimicrobial activity (minimal inhibitory concentration, MIC) of PAL/LCA-peptides. Optical density was measured with a wide bandpass filter (wavelength range 420–580 nm) at regular intervals and temperatures. This assay was performed in a special microtiter plate (10 × 10 wells) that allowed the simultaneous testing of a large number of samples against several microorganisms. The total testing volume was 100 µL, obtained by mixing 10 µL of microbial culture with OD600 equal to 0.1 with growth medium and a solution of the tested compounds. The positive controls were vancomycin and tetracycline for Bacillus subtilis (100 µg/mL) for Gram-positive bacteria, kanamycin, and tetracycline for Acinetobacter baumannii (100 µg/mL) for Gram-negative bacteria, and clotrimazole or amphotericin (100 µg/mL) for fungi. The maximal concentration of tested lipoproteins was 1 mg/mL. A pure growth medium was used as the negative control. The measurement period was 25 h. The lowest concentration with a 100% inhibition effect for 24 h of incubation was chosen as the MIC. The antibacterial activity of each compound was expressed as the minimum inhibitory concentration MIC (MIC is the lowest concentration of the compound needed to inhibit the growth of bacterial cells) and IC50 (IC50 is the concentration of the compound needed to inhibit the growth of bacterial cells by 50%).

M. luteus DBM 3053 = assay type: cell-based, Micrococcus luteus; conditions: for MIC: DBM 3053, 24 h; for IC50: DBM 3053, 25 h
Experimental: as §1

[1] = tested on: plasmid pBluescript II KS-; experiment: DNA binding assay (gel retardation); conditions: 50 ng DNA, 1 h room temperature, 1% agarose gel
Experimental: This assay was performed as described by Park et al. ([1998]), with a few modifications. […] The reaction mixture was incubated at room temperature for 1 h. Subsequently, 4 µL of native loading buffer (10% Ficol, 10 mM Tris–HCl (pH 7.5), 50 mM EDTA, 0.25% bromophenol blue) was added. An aliquot was applied to 1% agarose gel electrophoresis in 0.5xTris borate-EDTA buffer. Circular plasmid DNA was isolated from (Luria–Bertani medium with AMPI in final concentration 100 µg/mL) bacterial strain E. coli DH5α / pBluescriptII KS- that had been grown overnight, and linearization was performed overnight by enzymatic reaction using restriction endonuclease EcoRV at 37 °C. The evaluation was performed by visualizing the DNA with the intercalation dye Midori Green Advanced DNA Stain under UV light. Reduced electrophoretic mobility compared to the control is considered to be evidence of peptide binding to DNA.
According to the previous results, we decided to clarify one of the possible molecular interaction mechanisms, the ability of the studied lipopeptides to bind microbial plasmid DNA. Based on the assumption that pore formation is only one of the influencing factors, which arose from previous results, the effect on one of the possible intracellular targets, DNA, was determined. This determination was carried out on isolated plasmid DNA, specifically on two plasmids, pGreen 0029 and pBluescript II KS- in circular and linearized form.

B. subtilis DBM 3006 = assay type: cell-based, Bacillus subtilis; conditions: for MIC: DBM 3006, 24 h; for IC50: DBM 3006, 25 h
Experimental: as §1

Staph. aureus = experiment: Transmission electron microscopy of treated bacteria; assay type: cell-based, Staphylococcus aureus; conditions: 1 to 4 h incubation; media with (Mueller–Hinton broth 2) and without nutrients (potassium phosphate buffer)
Experimental: Pictures of damaged bacterial cells were obtained by transmission electron microscopy after 1 to 4 h of incubation. Cells of the Gram-positive bacterial strains were not stained. A JEOL JEM-1010 transmission electron microscope (JEOL, Tokyo, Japan) equipped with a MegaView III CCD camera was used for visualization, and evaluation was performed with the program for image analysis AnalySIS software v. 2.0 (Soft Imaging Systems). The samples were plated on a carbon-coated electron microscopic grid and observed with an accelerating voltage of 80 kV.

HEK293T = experiment: Cytotoxicity assay (xCELLigence impedance); assay type: cell-based, human; conditions: 24 h exposure
Experimental: (§2) Experiments were carried out using an xCELLigence RTCA DP Instrument (Roche Diagnostics GmbH, Mannheim, Germany) which was placed into an incubator (37 °C and 5% CO2). Cell proliferation and cytotoxicity experiments were performed using modified 16-well plates (E-plate, Roche Diagnostics GmbH, Mannheim, Germany). Microelectrodes were attached to the bottom of the wells for the impedance-based detection of attachment, spreading, and proliferation of the cells (Stoddart [2011]). This system monitors cellular events in real time without the incorporation of labels by measuring electrical impedance across an interdigitated microelectrode integrated into the bottom of this special tissue culture plate. This impedance measurement improves upon conventional endpoint assays and provides quantitative information about the biological status of the cells, including cell number, adhesion, viability, and morphology. Ninety microliters of cultivation medium was used for the blank sample, and subsequently, 100 µL of HepG2 or HEK293T cell suspension (7 × 10^5 cells/mL) was added and placed into the incubator (37 °C, 95% humidity, 5% CO2). […] Chrysophsin-3 at a concentration of 100 µg/mL was used as a positive control and solvent (deionized water) as a negative control. Subsequent incubation was performed for at least an additional 24 h. The result of the measurement was viability curves. After the measurement, percentages of tissue culture growth inhibition were calculated for all the tested substances, as follows: %inhibition=(1-(ΔϕCIsample)/(ΔϕCIcontrol))·100
(§3) Δ∅CIsample … the difference between the first and last average CI (cell index) values of the tissue culture in the presence of the tested sample.
(§4) Δ∅CIcontrol … the difference between the first and last average CI values of the tissue culture itself.

HepG2 = experiment: Cytotoxicity assay (xCELLigence impedance); assay type: cell-based, human; conditions: for % inhibition: 24 h exposure
Experimental: as §2, §3, §4

Ps. aeruginosa DBM 3081 = assay type: cell-based, Pseudomonas aeruginosa; conditions: 25 h
Experimental: as §1

E. coli DBM 3001 = assay type: cell-based; conditions: DBM 3001, 25 h
Experimental: as §1

E. faecalis DBM 3075 = assay type: cell-based; conditions: for IC50: DBM 3075, 25 h
Experimental: as §1

A. baumannii DBM 3183 = experiment: microbe, parasite or virus in culture; assay type: cell-based, Acinetobacter baumannii; conditions: DBM 3183, 25 h
Experimental: as §1

Staph. aureus DBM 3002 = assay type: cell-based, Staphylococcus aureus; conditions: for MIC: 24 h; for IC50: 25 h
Experimental: as §1

Staph. aureus MRSA1 [2] = assay type: cell-based, Staphylococcus aureus; conditions: for MIC: 24 h; for IC50: 25 h
Experimental: as §1

bacterial membrane = experiment: Membrane disruption (released lactate dehydrogenase activity); assay type: cell-based, Staphylococcus aureus; conditions: 1 h incubation at 37 °C, LDH kit, triplets
Experimental: The disruption of the microbial membrane was followed by the detection of lactate dehydrogenase activity released from the intracellular space using a Cytotoxicity Detection Kit (LDH) from Roche (Korzeniewski and Callewaert [1983]; Macurkova et al. [2014]) after 1 h incubation at 37 °C with the PAL/LCA-peptide. The culture supernatant was collected and incubated with the reaction mixture from the kit. In the first step, NAD^+ is reduced to NADH + H^+ by the LDH-catalyzed conversion of lactate to pyruvate. In the second step, the catalyst (diaphorase) transfers H/H^+ from NADH + H^+ to the tetrazolium salt 2-(4-iodophenyl)-3-(4-nitrophenyl)-5-phenyl-2H-tetrazolium chloride (INT), which is reduced to formazan. The formazan dye formed is red and water-soluble and gives a broad absorption maximum at 500 nm. An increase in the amount of dead or plasma membrane-damaged cells results in an increase in the LDH activity in the cell culture supernatant.
To determine the degree of damage to the cell membrane (%) by the tested substances, averages of absorbances (triplets) were calculated from the measured values for the samples, controls, and pure medium. Subsequently, the absorbance average for the clean medium (background) was subtracted from all averages obtained in this way. The degree of damage to the cell membrane by the tested substances was expressed as follows: membranedamage%=((AVZ-∅ANK)/(∅APK-ANK))∙100 ∅AVZ⋯averageabsorbanceofsample ∅ANK⋯averageabsorbanceofnegativecontrol ∅APK⋯averageabsorbanceofpositivecontrol

Staph. aureus MRSA1 [3] = assay type: cell-based, Staphylococcus aureus; conditions: 2xMIC, 37 °C
Experimental: This assay was used to determine how quick the effect of PAL/LCA-peptides is on bacteria, as well as whether the activity of these compounds is dependent on the presence of active bacterial metabolism (Kamysz et al. [2007]). The bacterial cultures were incubated overnight at 37 °C in Mueller–Hinton’s broth 2 or potassium phosphate buffer (0.1 M, pH 7). Cultures were diluted to OD600 equal to 0.1 and divided into 2 samples, and the final volume of each sample was 1 mL; after that, they were centrifuged (5000 × g, 10 min) to collect bacteria. […] The samples were incubated at 37 °C. At specific time intervals, samples of bacterial suspension were taken, diluted, and spread on Petri dishes with Mueller–Hinton’s agar to count the number of surviving cells as colony-forming units (CFU). The whole experiment lasted 24 h.

| Structure (SMILES) | IC50 (C. tropicalis DBM 2166) | MIC (M. luteus DBM 3053) | IC50 (M. luteus DBM 3053) | MIC (B. subtilis DBM 3006) | IC50 (B. subtilis DBM 3006) | morphological effect on bacterial cells (TEM) (Staph. aureus) | % inhibition (HEK293T; c 50 µg/mL) | % inhibition (HEK293T; c 100 µg/mL) | % inhibition (HEK293T; c 200 µg/mL) | % inhibition (HepG2; c 50 µg/mL) | % inhibition (HepG2; c 100 µg/mL) | IC50 (Ps. aeruginosa DBM 3081) | IC50 (E. coli DBM 3001) | IC50 (E. faecalis DBM 3075) | MIC (Staph. aureus DBM 3002) | IC50 (Staph. aureus DBM 3002) | MIC (Staph. aureus MRSA1 [2]) | IC50 (Staph. aureus MRSA1 [2]) | further results |
| --- | --- | --- | --- | --- | --- | --- | --- | --- | --- | --- | --- | --- | --- | --- | --- | --- | --- | --- | --- |
| CC(C)C[C@H](NC(=O)CC[C@@H](C)[C@H]1CC[C@H]2[C@@H]3CC[C@@H]4C[C@H](O)CC[C@]4(C)[C@H]3CC[C@]12C)C(=O)N[C@H](C(=O)N[C@@H](CCCCN)C(=O)NCC(=O)N[C@@H](C)C(=O)N[C@@H](CCCNC(=N)N)C(N)=O)C(C)C [SHP-2.3, LCA-LVKGAR-NH2] (Lithocholoyl-LVKGAR-NH2) | 75.0 µg/mL (≈ 75 µM) | 1.6 µg/mL (≈ 1.6 µM) | 5.0 µg/mL (≈ 5 µM) | 6.9 µg/mL (≈ 6.9 µM) | 20.0 µg/mL (≈ 20 µM) | damaging cellular envelopes | 25.6 ± 3.8% | 42.2 ± 6.3% | 85.1 ± 12.8% | 7.4 ± 1.1% | 0.0 ± 2.2% | N / > 100.0 µg/mL | N / > 100.0 µg/mL | N / > 100.0 µg/mL | 31.9 µg/mL (≈ 31.9 µM) | 50.0 µg/mL (≈ 50 µM) | 25.1 µg/mL (≈ 25.1 µM) | 50.0 µg/mL (≈ 50 µM) | MIC (C. tropicalis DBM 2166; DBM 2166, 24 h): 56.4 µg/mL (≈ 56.4 µM); weight ratio lipopeptide:DNA influencing electrophoretic mobility ([1]; circular plasmid): 10.0; weight ratio lipopeptide:DNA influencing electrophoretic mobility ([1]; linearized plasmid): 10.0; IC50 (A. baumannii DBM 3183): N / > 100.0 µg/mL |
| CC(C)C[C@H](NC(=O)CC[C@@H](C)[C@H]1CC[C@H]2[C@@H]3CC[C@@H]4C[C@H](O)CC[C@]4(C)[C@H]3CC[C@]12C)C(=O)N[C@H](C(=O)N[C@@H](CCCCN)C(=O)N[C@@H](CCCNC(=N)N)C(=O)N[C@@H](C)C(=O)NCC(N)=O)C(C)C [SHP-1.3, LCA-LVKRAG-NH2] (Lithocholoyl-LVKRAG-NH2) | 30.0 µg/mL (≈ 30 µM) | 5.5 µg/mL (≈ 5.5 µM) | 10.0 µg/mL (≈ 10 µM) | 31.5 µg/mL (≈ 31.5 µM) | 40.0 µg/mL (≈ 40 µM) | damaging cellular envelopes | 63.8 ± 9.6% | 72.0 ± 10.8% | 84.1 ± 12.6% | 57.4 ± 8.6% | 92.8 ± 13.9% | N / > 100.0 µg/mL | N / > 100.0 µg/mL | 100.0 µg/mL (≈ 100 µM) | 33.0 µg/mL (≈ 33 µM) | 50.0 µg/mL (≈ 50 µM) | 30.6 µg/mL (≈ 30.6 µM) | 50.0 µg/mL (≈ 50 µM) | Membrane damage (%) (bacterial membrane; KP (potassium phosphate buffer)): 30 ± 5%; Membrane damage (%) (bacterial membrane; MHB (Mueller–Hinton broth II)): 0 ± 5%; MIC (C. tropicalis DBM 2166; first value of cell 'MIC / IC50', 100% inhibition for 24 h): 10.3 µg/mL (≈ 10.3 µM); % inhibition (HepG2; c 200 µg/mL): 97.8 ± 14.7%; efficiency on HepG2 cells (HepG2; concentration not given): 97%; MIC (E. faecalis DBM 3075; DBM 3075, 24 h): 71.5 µg/mL (≈ 71.5 µM); bacteria killed within half an hour (Staph. aureus MRSA1 [3]; about 10^7 cells, SHP-1.2 only in medium with nutrients, SHP-1.3 in both media): 100%; killing activity (%) (Staph. aureus MRSA1 [3]; KP (potassium phosphate buffer, without nutrients)): 100 ± 18%; killing activity (%) (Staph. aureus MRSA1 [3]; MHB (Mueller–Hinton broth II, with nutrients)): 100 ± 12% |
